According to patent US8389557B2, “Triazole derivatives useful as Axl inhibitors” (Rigel Pharmaceuticals, Inc., priority 2005, dated 2013):

Molecular target: T1, Axl (Homo sapiens, UniProt P30530)
T1 construct: endogenous in cells; host or cells: HeLa cells
T1 sequence (P30530 26-894): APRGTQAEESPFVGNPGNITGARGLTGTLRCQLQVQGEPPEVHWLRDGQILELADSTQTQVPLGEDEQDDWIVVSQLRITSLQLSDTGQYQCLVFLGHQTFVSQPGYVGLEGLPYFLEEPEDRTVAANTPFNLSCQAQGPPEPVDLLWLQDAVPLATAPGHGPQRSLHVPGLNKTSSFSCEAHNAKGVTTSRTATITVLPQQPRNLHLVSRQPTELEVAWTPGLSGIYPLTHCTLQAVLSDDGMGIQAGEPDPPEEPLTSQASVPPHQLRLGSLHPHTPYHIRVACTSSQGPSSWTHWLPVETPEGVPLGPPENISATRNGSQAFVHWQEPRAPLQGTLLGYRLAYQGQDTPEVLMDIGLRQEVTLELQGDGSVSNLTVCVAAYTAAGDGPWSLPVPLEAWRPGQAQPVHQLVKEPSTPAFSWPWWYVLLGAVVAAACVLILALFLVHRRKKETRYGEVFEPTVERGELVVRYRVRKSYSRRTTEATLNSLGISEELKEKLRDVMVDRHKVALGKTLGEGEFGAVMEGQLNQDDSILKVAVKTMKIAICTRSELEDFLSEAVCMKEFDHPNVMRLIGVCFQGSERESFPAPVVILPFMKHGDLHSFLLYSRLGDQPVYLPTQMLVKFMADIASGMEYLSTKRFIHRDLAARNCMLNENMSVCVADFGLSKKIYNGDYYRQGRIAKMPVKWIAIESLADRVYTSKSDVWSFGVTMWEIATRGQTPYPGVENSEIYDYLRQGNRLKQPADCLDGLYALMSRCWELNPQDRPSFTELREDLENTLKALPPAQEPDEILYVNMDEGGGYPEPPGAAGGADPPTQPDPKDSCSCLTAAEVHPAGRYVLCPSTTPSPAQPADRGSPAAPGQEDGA
Test: Phospho-Akt in-cell Western assay (inhibition of Axl activity)
Type: cell-based
Conditions: Table 2; Hela cells, Axl antibody cross-linking stimulation, phospho-Akt chemiluminescence
In short: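 HeLa cells on poly-L-lysine, starved 24 h in 0.5% FCS DMEM with Axl/Fc 500 ng/mL, pre-treated with compound 1 h at 37° C. Axl stimulated 5 min by anti-Axl/anti-mouse antibody cross-linking. Fixed cells probed with anti-phospho-Akt and HRP secondary, chemiluminescence read.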

IC50 [µM] | SMILES
1 to 10 | CC(C)Oc1ccc(C(=O)n2nc(N)nc2Nc2ccc(N3CCN(C)CC3)cc2)cc1 [compound 360, 3-amino-1-(4-(iso-propoxy)phenyl)carbonyl-5-(4-(4-methylpiperazin-1-yl)phenylamino]-1H-1,2,4-triazole]
1 to 10 | CN1CCN(c2ccc(Nc3nc(N)nn3C(=O)c3ccc(N(C)C)cc3)cc2)CC1 [compound 362, 3-amino-1-(4-(dimethylamino)phenyl)carbonyl-5-(4-(4-methylpiperazin-1-yl)phenylamino]-1H-1,2,4-triazole]

Same assay, conditions: Table 5; Hela cells, Axl antibody cross-linking stimulation, phospho-Akt chemiluminescence

IC50 [µM] | SMILES
> 20 | CN(C)c1cccc(C(=O)n2nc(NC3C4C=CC(C4)C3C(N)=O)nc2N)c1 (centres unmarked) [compound 352, 5-amino-1-(3-(dimethylamino)phenyl)carbonyl-3-[(5-(aminocarbonyl)bicyclo[2.2.1]hept-2-en-6-yl)amino]-1H-1,2,4-triazole]
> 20 | CC(C)Oc1ccc(C(=O)n2nc(NC3C4C=CC(C4)C3C(N)=O)nc2N)cc1 (centres unmarked) [compound 354, 5-amino-1-(4-(iso-propoxy)phenyl)carbonyl-3-[(5-(aminocarbonyl)bicyclo[2.2.1]hept-2-en-6-yl)-amino]-1H-1,2,4-triazole]

The remaining lines, values behind:

SMILES | IC50 [µM]
CC(C)(C)Oc1ccc(C(=O)n2nc(NC3C4C=CC(C4)C3C(N)=O)nc2N)cc1 (centres unmarked) [compound 346, 5-amino-1-(4-(tert-butoxy)phenyl)carbonyl-3-[(5-(aminocarbonyl)bicyclo[2.2.1]hept-2-en-6-yl)amino]-1H-1,2,4-triazole] | > 20
CC(C)(C)Oc1cccc(C(=O)n2nc(NC3C4C=CC(C4)C3C(N)=O)nc2N)c1 (centres unmarked) [compound 348, 5-amino-1-(3-(tert-butoxy)phenyl)carbonyl-3-[(5-(aminocarbonyl)bicyclo[2.2.1]hept-2-en-6-yl)amino]-1H-1,2,4-triazole] | > 20
CN(C)c1ccc(C(=O)n2nc(NC3C4C=CC(C4)C3C(N)=O)nc2N)cc1 (centres unmarked) [compound 350, 5-amino-1-(4-(dimethylamino)phenyl)carbonyl-3-[(5-(aminocarbonyl)bicyclo[2.2.1]hept-2-en-6-yl)amino]-1H-1,2,4-triazole] | > 20

Same assay, conditions: Table 6; Hela cells, Axl antibody cross-linking stimulation, phospho-Akt chemiluminescence

IC50 [µM] | SMILES
> 20 | CN(C)c1ccc(C(=O)n2nc(N)nc2NC2C3C=CC(C3)C2C(N)=O)cc1 (centres unmarked) [compound 349, 3-amino-1-(4-(dimethylamino)phenyl)carbonyl-5-[(3-(aminocarbonyl)bicyclo[2.2.1]hept-5-en-2-yl)amino]-1H-1,2,4-triazole]
> 20 | CN(C)c1cccc(C(=O)n2nc(N)nc2NC2C3C=CC(C3)C2C(N)=O)c1 (centres unmarked) [compound 351, 3-amino-1-(3-(dimethylamino)phenyl)carbonyl-5-[(3-(aminocarbonyl)bicyclo[2.2.1]hept-5-en-2-yl)amino]-1H-1,2,4-triazole]
> 20 | CC(C)Oc1ccc(C(=O)n2nc(N)nc2NC2C3C=CC(C3)C2C(N)=O)cc1 (centres unmarked) [compound 353, 3-amino-1-(4-(iso-propoxy)phenyl)carbonyl-5-[(3-(aminocarbonyl)bicyclo[2.2.1]hept-5-en-2-yl)amino]-1H-1,2,4-triazole]

SMILES | IC50 [µM]
CC(C)(C)Oc1ccc(C(=O)n2nc(N)nc2NC2C3C=CC(C3)C2C(N)=O)cc1 (centres unmarked) [compound 345, 3-amino-1-(4-(tert-butoxy)phenyl)carbonyl-5-[(3-(aminocarbonyl)bicyclo[2.2.1]hept-5-en-2-yl)amino]-1H-1,2,4-triazole] | > 20
CC(C)(C)Oc1cccc(C(=O)n2nc(N)nc2NC2C3C=CC(C3)C2C(N)=O)c1 (centres unmarked) [compound 347, 3-amino-1-(3-(tert-butoxy)phenyl)carbonyl-5-[(3-(aminocarbonyl)bicyclo[2.2.1]hept-5-en-2-yl)amino]-1H-1,2,4-triazole] | > 20

Same assay, conditions: Table 9; Hela cells, Axl antibody cross-linking stimulation, phospho-Akt chemiluminescence

IC50 [µM] | SMILES
> 20 | NC(=O)C1C2C=CC(C2)C1Nc1nc(N)n(C(=O)c2ccc3cc[nH]c3c2)n1 (centres unmarked) [compound 356, 5-amino-1-(1H-indol-6-yl)carbonyl-3-[(5-(aminocarbonyl)bicyclo[2.2.1]hept-2-en-6-yl)amino]-1H-1,2,4-triazole]

Same assay, conditions: Table 10; Hela cells, Axl antibody cross-linking stimulation, phospho-Akt chemiluminescence

IC50 [µM] | SMILES
> 20 | NC(=O)C1C2C=CC(C2)C1Nc1nc(N)nn1C(=O)c1ccc2cc[nH]c2c1 (centres unmarked) [compound 355, 3-amino-1-(1H-indol-6-yl)carbonyl-5-[(3-(aminocarbonyl)bicyclo[2.2.1]hept-5-en-2-yl)amino]-1H-1,2,4-triazole]

Same assay, conditions: inhibition of Axl activity, phospho-Akt in-cell Western assay; Table 1

IC50 [µM] | SMILES
< 1 | CC(C)Oc1ccc(C(=O)n2nc(Nc3ccc(N4CCN(C)CC4)cc3)nc2N)cc1 [compound 359, 5-amino-1-(4-(iso-propoxy)phenyl)carbonyl-3-[4-(4-methylpiperazin-1-yl)phenylamino]-1H-1,2,4-triazole]
< 1 | CN1CCN(c2ccc(Nc3nc(N)n(C(=O)c4ccc(N(C)C)cc4)n3)cc2)CC1 [compound 361, 5-amino-1-(4-(dimethylamino)phenyl)carbonyl-3-[4-(4-methylpiperazin-1-yl)phenylamino]-1H-1,2,4-triazole]

Second part, the compound before the results:

SMILES | IC50 [µM]
Nc1nc(Nc2ccccc2)nn1C(=O)c1ccc(-c2csnn2)cc1 [compound 334, 5-amino-1-(4-(1,2,3-thiadiazol-4-yl)phenyl)carbonyl-3-(phenylamino)-1H-1,2,4-triazole] | > 20
Nc1nc(Nc2ccccc2)nn1C(=O)c1ccc(N2CCOCC2)cc1 [compound 335, 5-amino-1-(4-(morpholin-4-yl)phenyl)carbonyl-3-(phenylamino)-1H-1,2,4-triazole] | > 20
Nc1nc(Nc2ccccc2)nn1C(=O)c1cccc(N2CCOCC2)c1 [compound 336, 5-amino-1-(3-(morpholin-4-yl)phenyl)carbonyl-3-(phenylamino)-1H-1,2,4-triazole] | 10 to 20
CC(C)Oc1ccc(C(=O)n2nc(Nc3ccc(OCCN4CCCC4=O)cc3)nc2N)cc1 [compound 337, 5-amino-1-(4-(iso-propoxy)phenyl)carbonyl-3-[4-[2-(pyrrolidin-2-on-1-yl)ethoxy]phenylamino]-1H-1,2,4-triazole] | < 1
Nc1nc(Nc2ccc(OCCN3CCCC3=O)cc2)nn1C(=O)c1ccc(-c2csnn2)cc1 [compound 338, 5-amino-1-(4-(1,2,3-thiadiazol-4-yl)phenyl)carbonyl-3-[4-[2-(pyrrolidin-2-on-1-yl)ethoxy]phenylamino]-1H-1,2,4-triazole] | 1 to 10
Nc1nc(Nc2ccc(OCCN3CCCC3=O)cc2)nn1C(=O)c1ccc(N2CCOCC2)cc1 [compound 339, 5-amino-1-(4-(morpholin-4-yl)phenyl)carbonyl-3-[4-[2-(pyrrolidin-2-on-1-yl)ethoxy]phenylamino]-1H-1,2,4-triazole] | 1 to 10
Nc1nc(Nc2ccc(OCCN3CCCC3=O)cc2)nn1C(=O)c1cccc(N2CCOCC2)c1 [compound 340, 5-amino-1-(3-(morpholin-4-yl)phenyl)carbonyl-3-[4-[2-(pyrrolidin-2-on-1-yl)ethoxy]phenylamino]-1H-1,2,4-triazole] | 1 to 10
CC(C)(C)Oc1ccc(C(=O)n2nc(Nc3ccccc3)nc2N)cc1 [compound 341, 5-amino-1-(4-(tert-butoxy)phenyl)carbonyl-3-(phenylamino)-1H-1,2,4-triazole] | 1 to 10
CC(C)(C)Oc1ccc(C(=O)n2nc(Nc3ccc(OCCN4CCCC4=O)cc3)nc2N)cc1 [compound 342, 5-amino-1-(4-(tert-butoxy)phenyl)carbonyl-3-[4-[2-(pyrrolidin-2-on-1-yl)ethoxy]phenylamino]-1H-1,2,4-triazole] | < 1
COc1cc(Nc2nc(N)n(C(=O)c3ccc(N4CCOCC4)cc3)n2)ccc1OCCN1CCCC1 [compound 343, 5-amino-1-(4-(morpholin-4-yl)phenyl)carbonyl-3-[3-methoxy-4-[2-(pyrrolidin-1-yl)ethoxy]phenylamino]-1H-1,2,4-triazole] | < 1
COc1cc(Nc2nc(N)n(C(=O)c3cccc(N4CCOCC4)c3)n2)ccc1OCCN1CCCC1 [compound 344, 5-amino-1-(3-(morpholin-4-yl)phenyl)carbonyl-3-[3-methoxy-4-[2-(pyrrolidin-1-yl)ethoxy]phenylamino]-1H-1,2,4-triazole] | < 1
CN1CCN(c2ccc(Nc3nc(N)n(C(=O)c4ccc(OC(C)(C)C)cc4)n3)cc2)CC1 [compound 357, 5-amino-1-(4-(tert-butoxy)phenyl)carbonyl-3-[4-(4-methylpiperazin-1-yl)phenylamino]-1H-1,2,4-triazole] | < 1
CN1CCN(c2ccc(Nc3nc(N)n(C(=O)c4cccc(OC(C)(C)C)c4)n3)cc2)CC1 [compound 358, 5-amino-1-(3-(tert-butoxy)phenyl)carbonyl-3-[4-(4-methylpiperazin-1-yl)phenylamino]-1H-1,2,4-triazole] | < 1
